Data from patent US20110262567A1, “COMPOSITION FOR TREATING GOUT, CONTAINING ANGELICA GIGAS EXTRACT HAVING A XANTHINE OXIDASE-INHIBITING EFFECT AND AN INFLAMMATION-INDUCING ENZYME-INHIBITING EFFECT” (KOREA BIO HEALTH CO., LTD., priority 2008, published 2011).
≈ marks a conversion by molar mass, not a printed value.

Assays:
[1] = system: Cox-2; test: Inflammation inhibition in hepatocytes of gout-induced animal model (Cox-2 western blot of liver); format: in vivo; conditions: rat, 50 mg/kg oral for 3 days after potassium oxonate; compared to hyperuricemia control group (model control)
Method: In order to confirm the inhibitory effect of the Angelica gigas Nakai extract of the present invention on the inflammation-inducing enzyme Cox-2, the uricase inhibitor, potassium oxonate was administered to induce hyperuricemia.
As the experimental animal, 9-week old male sprague-dawley rats (250-280 g, Samtako, Inc.) were acclimated in a SPF chamber where the humidity and temperature were maintained at 50±5% and 24˜26° C. and feed and water were supplied ad libitum for 1 week, and then used for the experiment.
In the present experiment, the uricase inhibitor, potassium oxonate (150 mg/kg) was intraperitoneally administered one day before sample treatment, so as to induce hyperuricemia. The contents of uric acid before and after administration of potassium oxonate were measured and compared to each other, in order to confirm the hyperuricemia induction by administration of potassium oxonate.
Potassium oxonate was suspended in 0.5% sodium carboxymethylcellulose (CMC-Na, 0.5% CMC with 0.1 M sodium acetate (pH5)), and used. […]
After oral administration for 3 days, the experimental animals were fasted overnight, and then anesthetized with dry ice. […] 100 mg was dissected from the whole liver, and proteins were separated using a cell lysis buffer, and the protein concentration was measured by BCA protein assay. […]

[2] = biological target: xanthine oxidase (Homo sapiens, UniProt P47989); test: Test on xanthine oxidase inhibition; format: biochemical
Chain of xanthine oxidase (P47989 whole entry, species assumed): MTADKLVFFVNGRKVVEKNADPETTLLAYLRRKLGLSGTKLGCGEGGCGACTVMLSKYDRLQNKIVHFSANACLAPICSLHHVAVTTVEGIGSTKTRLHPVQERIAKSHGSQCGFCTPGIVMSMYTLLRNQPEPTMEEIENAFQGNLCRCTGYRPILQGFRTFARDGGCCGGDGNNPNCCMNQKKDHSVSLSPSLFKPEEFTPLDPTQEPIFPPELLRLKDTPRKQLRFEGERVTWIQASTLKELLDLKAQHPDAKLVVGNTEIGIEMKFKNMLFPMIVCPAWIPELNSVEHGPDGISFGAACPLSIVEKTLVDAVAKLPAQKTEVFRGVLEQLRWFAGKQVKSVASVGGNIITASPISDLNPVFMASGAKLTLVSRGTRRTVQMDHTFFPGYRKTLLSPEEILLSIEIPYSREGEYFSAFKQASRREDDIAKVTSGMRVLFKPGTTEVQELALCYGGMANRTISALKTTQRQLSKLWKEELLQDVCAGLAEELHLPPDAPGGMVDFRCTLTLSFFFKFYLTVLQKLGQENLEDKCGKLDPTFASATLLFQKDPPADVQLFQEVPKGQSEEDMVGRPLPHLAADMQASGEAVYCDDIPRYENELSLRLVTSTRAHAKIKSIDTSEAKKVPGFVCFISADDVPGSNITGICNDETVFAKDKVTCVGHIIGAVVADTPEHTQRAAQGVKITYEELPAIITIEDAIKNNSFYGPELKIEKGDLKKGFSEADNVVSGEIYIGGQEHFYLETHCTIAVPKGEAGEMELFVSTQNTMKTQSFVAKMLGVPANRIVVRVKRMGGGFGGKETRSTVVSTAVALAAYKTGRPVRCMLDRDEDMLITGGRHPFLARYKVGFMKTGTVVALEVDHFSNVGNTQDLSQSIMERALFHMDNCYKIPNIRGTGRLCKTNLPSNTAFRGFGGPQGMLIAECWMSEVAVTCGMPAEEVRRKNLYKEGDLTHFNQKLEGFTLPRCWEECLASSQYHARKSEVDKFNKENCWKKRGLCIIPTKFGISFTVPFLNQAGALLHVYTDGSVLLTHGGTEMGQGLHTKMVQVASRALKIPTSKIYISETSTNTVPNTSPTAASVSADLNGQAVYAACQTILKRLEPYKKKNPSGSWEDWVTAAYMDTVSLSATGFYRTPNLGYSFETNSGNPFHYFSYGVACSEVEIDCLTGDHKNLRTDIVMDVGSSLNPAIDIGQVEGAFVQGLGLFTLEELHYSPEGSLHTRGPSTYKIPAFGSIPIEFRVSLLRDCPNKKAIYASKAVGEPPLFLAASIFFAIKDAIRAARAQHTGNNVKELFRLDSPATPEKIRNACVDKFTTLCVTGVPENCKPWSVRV
Method: In this experiment, xanthine was used as a substrate and xanthine oxidase was used as an enzyme to perform an enzyme-substrate reaction.
250 μl of 50 mM potassium phosphate buffer (pH 7.5), 385 μl of Angelica gigas Nakai extract solution (prepared by dilution with 50 mM potassium phosphate buffer (pH 7.5) until the final concentrations of decursin and decursinol angelate become 1, 5, 10, 17.5, 20, 50 μg/ml), and 330 μl of xanthine solution were mixed with each other to prepare a reaction solution.
35 μl of xanthine oxidase solution (final concentration of 0.4 U/ml) was added to the reaction solution, and reacted in a 37° C. incubator for 15 min. Then, absorbance (Ab) was measured at 295 nm.
Each reaction solution was also prepared using each Angelica gigas Nakai extract (each final concentration of decursin and decursinol angelate was 1, 5, 10, 17.5, 20, or 50 μg/ml) without addition of the xanthine oxidase solution. Further, in the absence of the Angelica gigas Nakai extract, each reaction solution was prepared with or without the xanthine oxidase solution. […]
A: a change in absorbance in the absence of composition (Absorbance with enzyme−Absorbance without enzyme)
B: a change in absorbance in the presence of composition (Absorbance with enzyme−Absorbance without enzyme)

`Oc1ncnc2[nH]ncc12` [allopurinol] was tested, and the “Cox-2 expression in the hepatic tissue” value [1] was “adversely increased” and the IC90 [2] was 38 µg/mL (≈ 279 µM).
